Source: patent US20030195183A1, “Method for correcting immune system of live body” (priority 2000, published 2003)
Entries after “also recorded” stand apart in the source; their conditions may differ. Read-outs that look alike come from different tables or passages of the source.

Assays:
[1] = test system: natural killers (CD3−, CD16+ and CD56+); experiment: cytotoxic activity of natural killers against K-562 cells; type: cell-based, human
Procedure: Labeled cells of […] of myeloblastoid Strain K-562, as well as mononuclear cells of 10 healthy blood donors and 10 patients with various diseases with low and high levels of cytotoxicity, were used for the study of effects of various concentrations of the preparation on cytotoxic activity of natural killers (CD3^−, CD16^+ and CD56^+).
The used Strain K-562 cells to effector cells ratio was 1:25 (100 μl of labeled cells and 100 μl of mononuclear cells). The studies were carried out using 96-well plates; incubation for 16 to 24 hours in a CO2-incubator at 37° C. was carried out. Then, the contents of the wells was transferred to filters, washed, dried and placed in solution with scintillation liquid with consecutive determination of index using a β-counter. Cytotoxic index (CI) was calculated using the following formula: [formula]
A=the target cells radioactivity in the presence of effector cells;
B=radioactivity after cells treatment with […] (maximum value);
C=radioactivity of target cells in the absence of effector cells.

[2] = test system: cellular immune response (DHR to ram erythrocytes); experiment: delayed hypersensitivity reaction (DHR) in mice; type: in vivo
Procedure: To evaluate the effect of the preparation on cellular immunity reaction, delayed hypersensitivity reaction (DHR) was used. The mice were sensitized by subcutaneous injection of 1·10^7 ram erythrocytes contained in a volume of 20 μl. Doses of the preparation ranging from 0.2 to 2,000 μg were injected at ten-fold intervals simultaneously with sensitizing and shocking dose of the antigen. Shocking dose of ram erythrocytes (1·10^8) was injected under aponeurotic plate of left hind paw on the 5th day after sensitization. Injection of 20 μl of physiologic solution in the right paw served as control. Intensity of inflammatory reaction was recorded 24 hours after the administration of shocking dose of the antigen. For this purpose, the mice were killed and, immediately after this, both paws were amputated at the level of ankle joint and weighed on torsion balance. Reaction index (RI) was determined as the difference of masses of study (S) and control (C) paws using the following formula: [formula]

Strain 264 E. Coli = experiment: non-specific resistivity of mice infected with E. Coli; type: in vivo, Strain C57BL6 mice; design: Mean lifetime: unit not given beside the values
Procedure: Doses of the preparation ranging from 200 to 0.2 μg were injected intraperitoneally at ten-fold intervals in 0.5 ml of physiologic solution to Strain C57BL6 mice two hours before their infecting. Mice were infected with S. Typhi in a dose of 1·10^4 microbial cells; another group of animals was infected with Strain 264 E. coli in a dose of […] microbial cells. Mice infected with the same microbial culture, but receiving no preparation, were used a controls. Lethal outcomes in mice were recorded every day for a period of 10 days.

Procedure for spleen cell culture: Effects of the compounds on lymphoid cells proliferation and interleukin-2 induction in vitro were evaluated with the use of Strain BalB/c mice weighing 16 to 18 g. Animals of control and study groups were matched by sex and weight. Each dose of the preparation was tested on 10 animals; as a whole, more than 800 mice have been studied.
Spleens of the animals were used for carrying out the immunologic reactions. The organs were cut and homogenized in a glass homogenizer. […] The suspensions were centrifuged in a K23 centrifuge at 1,500 rpm at 4° C. for 10 minutes.
The suspensions were diluted 100-fold with 3% acetic acid contrasted with methylene blue, and cells were counted in Goryaev's chamber. Cell viability was evaluated with aid of 0.1% trypan blue in physiologic solution.

CNc1cccc2c(=O)[nH][nH]c(=O)c12.[Na] [sodium salt of 5-methylamino-2,3-dihydrophthalazine-1,4-dione]
Cytotoxic index level, % (M) ([1]; 2.5 μg/ml, High control level of CI): 57 ± 0.7%
Cytotoxic index level, % (M) ([1]; 2.5 μg/ml, Low control level of CI): 34 ± 1.3%
Cytotoxic index level, % (M) ([1]; 2.5 μg/ml, Medium control level of CI): 41.9 ± 0.9%
CI, % ([1]; 2.5 μg/ml, normal level of CI): 41.9 ± 2.8%
Cytotoxic index level, % (M) ([1]; 5.0 μg/ml, High control level of CI): 54 ± 0.8%
Cytotoxic index level, % (M) ([1]; 5.0 μg/ml, Low control level of CI): 30 ± 1.2%
CI, % ([1]; 5.0 μg/ml, normal level of CI): 38.8 ± 3.1%
CI, % ([1]; 10.0 μg/ml, normal level of CI): 40.8 ± 3.0%
CI, % ([1]; 25.0 μg/ml, normal level of CI): 41.4 ± 3.0%
CI, % ([1]; 50.0 μg/ml, normal level of CI): 39.1 ± 4.0%
CI, % ([1]; 75.0 μg/ml, normal level of CI): 37.7 ± 4.1%
CI, % ([1]; 150.0 μg/ml, normal level of CI): 41.0 ± 3.5%
CI, % ([1]; 300.0 μg/ml, normal level of CI): 39.0 ± 3.1%
cytotoxicity of natural killers ([1]; 2.5 and 5.0 μg/ml, high initial level of CI): statistically significant inhibition
functional activity of natural killers ([1]; 2.5 and 5.0 μg/ml, low initial level of CI): statistically significant stimulation
modification of natural killers cytotoxicity ([1]; 2.5 to 300 μg/ml, normal level of CI): did not cause significant modification

Nc1ccc2c(=O)[nH][nH]c(=O)c2c1.[Na] [sodium salt of 6-amino-2,3-dihydrophthalazine-1,4-dione]
Reaction index ([2]; 2 μg, Strain C57BL6 mice): 19 ± 9
Reaction index ([2]; 2 μg, Strain CBA mice): 11 ± 8
Reaction index ([2]; 20 μg, Strain C57BL6 mice): 16 ± 9
Reaction index ([2]; 20 μg, Strain CBA mice): 10 ± 5
Reaction index ([2]; 200 μg, Strain C57BL6 mice): 15 ± 6
Reaction index ([2]; 200 μg, Strain CBA mice): 2 ± 1.5
development of DHR ([2]; 200 μg, high-reaction Strain CBA mice): inhibition of DHR; also recorded: suppressed
development of DHR ([2]; 20 to 2 μg, mice of both strains): no effect
reaction index (trend) ([2]; mice of both strains, as the dose of the preparation decreased): tendency to increase

Nc1cccc2c(=O)[nH][nH]c(=O)c12.[Ca] [calcium salt of 5-amino-2,3-dihydrophthalazine-1,4-dione]
Mean lifetime (Strain 264 E. Coli; dose 0.2 μg): 2.2
Number of lethal outcomes, day 1 (Strain 264 E. Coli; dose 0.2 μg i.p., 10 mice): 4
Number of lethal outcomes, day 3 (Strain 264 E. Coli; dose 0.2 μg i.p., 10 mice): 6
increase in lifetime of animals infected with E. Coli (Strain 264 E. Coli; dose 0.2 μg, versus controls): 2.2 fold
Mean lifetime (Strain 264 E. Coli; dose 2 μg): 1.0
Number of lethal outcomes, day 1 (Strain 264 E. Coli; dose 2 μg i.p., 10 mice): 10
Mean lifetime (Strain 264 E. Coli; dose 20 μg): 1.0
Number of lethal outcomes, day 1 (Strain 264 E. Coli; dose 20 μg i.p., 10 mice): 10
Mean lifetime (Strain 264 E. Coli; dose 200 μg): 1.0
Number of lethal outcomes, day 1 (Strain 264 E. Coli; dose 200 μg i.p. two hours before infecting, 10 mice): 10
effects on the resistivity of mice infected with E. Coli (Strain 264 E. Coli; doses 200 to 2 μg): no effects

Cl.Nc1cccc2c(=O)[nH][nH]c(=O)c12 [5-amino-2,3-dihydrophthalazine-1,4-dione hydrochloride]
lymphoid cells proliferation (spleen cell culture; 2.5 μg/ml, ConA): 195 ± 27
lymphoid cells proliferation (spleen cell culture; 2.5 μg/ml, LPS): 251 ± 44
lymphoid cells proliferation (spleen cell culture; 2.5 μg/ml, no mitogen): 249 ± 93
lymphoid cells proliferation (spleen cell culture; 12.5 μg/ml, ConA): 178 ± 28
lymphoid cells proliferation (spleen cell culture; 12.5 μg/ml, LPS): 256 ± 40
lymphoid cells proliferation (spleen cell culture; 12.5 μg/ml, no mitogen): 369 ± 56
mitogenic properties (spleen cell culture; 50 μg/ml to 12.5 mg/ml): no mitogenic properties
lymphoid cells proliferation (spleen cell culture; 50 μg/ml, ConA): 11860 ± 1566
lymphoid cells proliferation (spleen cell culture; 50 μg/ml, LPS): 13232 ± 928
lymphoid cells proliferation (spleen cell culture; 50 μg/ml, no mitogen): 2576 ± 237
lymphoid cells proliferation (spleen cell culture; 500 μg/ml, ConA): 1323 ± 192
lymphoid cells proliferation (spleen cell culture; 500 μg/ml, LPS): 3870 ± 308
lymphoid cells proliferation (spleen cell culture; 500 μg/ml, no mitogen): 1763 ± 94
spontaneous proliferation of spleen cells and proliferation induced by ConA and LPS (spleen cell culture; higher concentrations): inhibited
